Test results published in patent US7446092B2, “Glycogen synthase kinase-3 inhibitors” (Tel Aviv University Future Technology Development L.P., priority 2002, dated 2008).
Square brackets hold non-standard residues; d marks the D form. Ends that are not written are not given here. Peptide text beside a SMILES is read from it. * marks the point of attachment. pY = N[C@@H](Cc1ccc(OP(=O)(O)O)cc1)C(=O)O; Myristoyl = CCCCCCCCCCCCCC(=O)*; pS = N[C@@H](COP(=O)(O)O)C(=O)O

Assays:
GSK-3 = target: T1, GSK-3 (Oryctolagus cuniculus, UniProt G1T8E2); test: In vitro test of peptides as GSK-3 substrates; format: biochemical, rabbit; conditions: S2(p) of p9CREB replaced
T1 construct: made in house
T1 sequence (G1T8E2 1-432): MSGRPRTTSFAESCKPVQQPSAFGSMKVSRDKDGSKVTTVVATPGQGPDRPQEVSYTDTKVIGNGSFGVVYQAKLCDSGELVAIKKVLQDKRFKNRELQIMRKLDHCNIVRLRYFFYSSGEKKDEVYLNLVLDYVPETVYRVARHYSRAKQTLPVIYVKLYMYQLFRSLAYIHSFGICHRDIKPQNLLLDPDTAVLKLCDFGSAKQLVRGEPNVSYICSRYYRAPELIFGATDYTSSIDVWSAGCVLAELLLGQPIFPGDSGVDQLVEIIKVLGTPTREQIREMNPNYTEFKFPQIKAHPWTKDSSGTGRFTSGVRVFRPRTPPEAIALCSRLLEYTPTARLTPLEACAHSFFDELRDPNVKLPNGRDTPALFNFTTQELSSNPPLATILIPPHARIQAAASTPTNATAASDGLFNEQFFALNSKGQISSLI

mouse adipocytes = test: Glucose uptake in isolated adipocytes; format: cell-based
Description: Glucose uptake in isolated adipocytes: Mice adipocytes were isolated from epididymal fat pad by digestion with 0.8 mg/ml collagenase (Worthington Biochemical) as described previously (Lawrence et al., 1977). Digested fat pads were passed through nylon mesh and cells were washed 3 times with Krebs-bicarbonate buffer (pH=7.4) containing 1% bovine serum albumin (Fraction V, Boehringer Mannheim, Germany), 10 mM HEPES (pH=7.3), 5 mM glucose and 200 nM adenosine. Cells were incubated with L803-mts or LE803-mts at indicated concentrations for 1 hour, followed by addition of 2-deoxy [^3H] glucose (0.5 μci/vial) for 10 minutes. The assay was terminated by centrifugation of cells through dinonylphthalate (ICN, USA). ^3H was thereafter quantitated by liquid scintillation analyzer (Packard). Nonspecific uptake of 2-deoxy-[^3H] glucose was determined by the addition of cytochalasin B (50 μM) 30 minutes prior to the addition of radioactive material.
In another set of experiments, adipocytes were treated with various concentrations of L803-mts 1 hour before addition of sub-optimal concentration of insulin (5 nM). Glucose uptake was determined as described above.

GSK-3β = GSK-3β (Oryctolagus cuniculus, UniProt A0A5F9DUX8); test: In vitro GSK-3 inhibition assay (phosphorylation of PGS-1 peptide substrate); format: biochemical, rabbit; conditions: for Inhibitor functionality: GSK-3 inhibitor; for GSK-3 inhibition (in words): in vitro, cpL803-mts tested at 0-300 μM
GSK-3β, sequence (A0A5F9DUX8 1-420): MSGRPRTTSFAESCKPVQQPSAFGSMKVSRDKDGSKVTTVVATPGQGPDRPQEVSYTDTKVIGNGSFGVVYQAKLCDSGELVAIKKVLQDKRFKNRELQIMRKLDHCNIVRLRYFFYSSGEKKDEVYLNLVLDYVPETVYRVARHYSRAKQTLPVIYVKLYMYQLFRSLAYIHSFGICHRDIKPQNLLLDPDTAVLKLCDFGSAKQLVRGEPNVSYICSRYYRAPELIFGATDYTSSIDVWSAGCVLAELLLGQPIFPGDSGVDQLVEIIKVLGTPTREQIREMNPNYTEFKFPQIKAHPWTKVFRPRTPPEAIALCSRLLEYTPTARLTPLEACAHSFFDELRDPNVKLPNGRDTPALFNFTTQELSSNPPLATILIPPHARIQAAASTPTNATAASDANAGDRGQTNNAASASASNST
Description: In vitro inhibition assays: Purified recombinant rabbit GSK-3β (Eldar-Finkelman et al., 1996) was incubated with peptide substrate PGS-1 ([…](p)EDEEE) (SEQ ID NO:15) and with a peptide inhibitor at indicated concentrations. The reaction mixture included Tris 50 mM (pH=7.3), 10 mM MgAc, ^32P[γ-ATP] (100 μM), 0.01% β-mercaptoethanol, and was incubated for 10 minutes at 30° C. Reactions were spotted on phosphocellulose paper (p81), washed with 100 mM phosphoric acid, and counted for radioactivity (as described in Eldar-Finkelman et al., 1996).

Cdc2 = target: T2, Cdc2 (Homo sapiens, UniProt P06493); test: Effect of L803 on Cdc2 activity (histone H1 substrate); format: biochemical; conditions: L803 200 μM
T2 construct: purchased New England BioLabs (Beverly, Mass.)
T2 sequence (P06493 whole entry): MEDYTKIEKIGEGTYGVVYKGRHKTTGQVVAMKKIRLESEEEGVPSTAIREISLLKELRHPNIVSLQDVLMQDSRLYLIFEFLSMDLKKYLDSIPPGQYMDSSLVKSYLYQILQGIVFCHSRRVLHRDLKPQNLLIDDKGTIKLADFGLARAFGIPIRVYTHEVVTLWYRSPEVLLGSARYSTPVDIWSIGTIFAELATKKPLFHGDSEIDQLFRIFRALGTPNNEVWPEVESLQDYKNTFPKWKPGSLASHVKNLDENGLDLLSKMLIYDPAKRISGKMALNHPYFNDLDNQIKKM
T2 sequence (P14635 whole entry partner): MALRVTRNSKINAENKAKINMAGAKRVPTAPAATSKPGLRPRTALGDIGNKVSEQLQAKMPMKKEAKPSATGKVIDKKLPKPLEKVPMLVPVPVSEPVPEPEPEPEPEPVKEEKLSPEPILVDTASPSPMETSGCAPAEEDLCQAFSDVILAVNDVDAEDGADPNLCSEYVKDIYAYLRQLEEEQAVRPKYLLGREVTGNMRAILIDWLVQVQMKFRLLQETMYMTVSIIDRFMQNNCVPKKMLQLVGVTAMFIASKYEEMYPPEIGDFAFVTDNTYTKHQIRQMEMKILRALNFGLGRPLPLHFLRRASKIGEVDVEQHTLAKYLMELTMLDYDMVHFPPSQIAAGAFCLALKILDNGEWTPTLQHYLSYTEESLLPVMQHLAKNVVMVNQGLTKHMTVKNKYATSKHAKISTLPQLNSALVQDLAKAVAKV
Description: The effect of L803 (200 μM) on other protein kinases was tested by incubating Cdc2 (1 unit) with a reaction mixture similar to that described hereinabove and containing histone H1 substrate (5 μg). The reactions were boiled with SDS sample buffer, separated on gel electrophoresis and autoradiographed.

β-catenin = β-catenin levels in mouse hippocampus extracts (Western blot); format: in vivo
Description: (§1) Forced Swimming Test (FST): C57BL/6J mice were housed in individual cages with free access to water in a temperature-controlled facility with a 12 hours light/dark cycle. Animals at age 14-16 weeks were used, and each experimental group consisted of randomly chosen 10-20 mice. At day one, mice were subjected to pre-FST (see below). At day two, mice were anesthetized with halothane (inhalation) and were unilaterally intracerebroventricularly injected (i.c.v., 1 μl of 25 mM stock solution) with L803-mts or a scrambled control peptide (cpL803-mts). Animals were subjected to FST once 1, 3, and 12 hours after reagents were administrated. The FST procedure used was similar to that initially described by Porsolt et al. (1977). Briefly, animals were placed at day one in a large cylinder (30 cm×45 cm) of 25° C. water for a 15-minutes period. At day two (24 hours later), treated mice were placed in the cylinder of water for a 6-minutes period. The duration of immobility was monitored during the last 4 minutes of the 6-minute test. Immobility period was defined as the time spent by the animal floating in the water without struggling and making only those movements necessary to keep its head above the water. All testing took place between 11:00 and 15:00. After completion the FST, mice were scarified, and hippocampuses were removed, frozen in liquid nitrogen, and stored at −80° C. Animal care followed the institutional animal care and used committee.
Hippocampus extracts: Hippocampus tissue was homogenized with ice cold buffer H (50 mM β-glycerophosphate pH=7.3, 10% glycerol, 1 mM EGTA, 1 mM EDTA, 10 mM NaF, 5 mM NaPPi, 25 μg/ml leupeptin, 25 μg/ml aprotinin, 500 nM microcystine LR and 1% Triton X100). […] Equal amounts of proteins (30 μg) as determined by Bradford analysis (Bradford, […]) were boiled with Laemmli sample buffer and subjected to gel electrophoresis (10% polyacrylamide gel), transferred to nitrocellulose membranes, and immunoblotted with specific monoclonal antibodies for β-catenin (Transduction laboratories, USA).

glycogen synthase = test: Glycogen synthase activity in HEK 293 cells; format: cell-based
Excerpt: Glycogen synthase activity in HEK 293 cells: To test the impact of the conjugates of the present invention in intact cells, the membrane preamble L803 inhibitor L803-mts (N-Myristol-GKEAPPAPPQS(p)P) (SEQ ID NO:16) and two similarly modified respective controls LE803-mts (N-Myristol-GKEAPPAPPQSEP) (SEQ ID NO:17) and LS803-mts (N-Myristol-GKEAPPAPPQSP) (SEQ ID NO:18), in which the phosphorylated serine was replaced with glutamic acid (that usually mimics a phosphorylated group) or a serine residue, respectively, were designed and synthesized.
HEK 293 cells were grown in 10 cm plates with Dulbecco's modified Eagle medium (DMEM) supplemented with 10% fetal calf serum (FCS). On the day of the experiment, cells were incubated with low glucose medium supplemented with 0.5% FCS for 1 hour, followed by the addition of the conjugate L803-mts or its respective controls LE803-mts and LS803-mts at various concentrations, for additional 2.5 hours. A vehicle control of DMSO (0.1% DMSO) was also tested. […] The reactions were then spotted on ET31 (Whatman) papers, washed with 66% ice-cold ethanol, and counted for radioactivity. Glycogen synthase assays were measured in the presence of 0.1 mM glucose-6-phosphate (G6P). […]

[1] = Glucose tolerance test in fasted C57Bl/6J mice; format: in vivo; conditions: vs control peptide
Description: Glucose tolerance tests: Glucose tolerance tests were performed in overnight fasted C57Bl/6J mice (12 hours). L803-mts or LE803-mts were administrated intraperitoneally (i.p.) to mice (400 nmol peptide), glucose (1 gram/kg) was injected i.p. one hour thereafter and blood samples were collected from tail vein at various time points. Blood glucose levels were immediately measured by Sugar Accutrend Sensor,(Roche, Germany)).

[2] = Forced swimming test (FST); format: in vivo, C57BL/6J mice; conditions: vs control-treated animals
Description: as §1

**Q.** Which “Phosphorylation by GSK-3 (in words)” value (GSK-3) does the source give for “ILSRPPY(p)YR (ILSRPP[pY]YR; also: phosphotyrosine, Y7 or Y8 (written PPY(p)YR)) [Peptide 4]” here?
**A.** eliminated the capacity of GSK-3 to phosphorylate these peptides

**Q.** With insulin [reference compound] as the compound, how does the “Maximum stimulation of glucose uptake by insulin” value (mouse adipocytes; mouse adipocytes, insulin 10 nM, data not shown) read?
**A.** 3 fold

**Q.** For `CC[C@H](C)[C@H](N)C(=O)N[C@@H](CC(C)C)C(=O)N[C@@H](C)C(=O)N[C@@H](CCCNC(=N)N)C(=O)N[C@@H](CCCNC(=N)N)C(=O)N1CCC[C@H]1C(=O)N[C@@H](COP(=O)(O)O)C(=O)N[C@@H](Cc1ccc(O)cc1)C(=O)N[C@@H](CCCNC(=N)N)C(=O)O` [Peptide 6, ILARRPS(p)YR] (H-ILARRP[pS]YR-OH), which Inhibitor functionality (GSK-3β) is on record?
**A.** * (weak inhibition activity (IC50 > 800 μM))

**Q.** And the “GSK-3 inhibition (in words)” value (GSK-3β)?
**A.** eliminated the inhibitory capacity

**Q.** For “N-Myristol-GKEAPPAPPQSEP (Myristoyl-GKEAPPAPPQSEP) [LE803-mts, control conjugate, phosphorylated serine replaced with glutamic acid, reference compound]”, which “GSK-3 inhibition (in words)” value (GSK-3β) is on record?
**A.** do not inhibit

**Q.** Which “Inhibition of cdc2 (in words)” value (Cdc2) does the source give for `C[C@H](NC(=O)[C@H](CCC(=O)O)NC(=O)[C@@H](N)CCCCN)C(=O)N1CCC[C@H]1C(=O)N1CCC[C@H]1C(=O)N[C@@H](C)C(=O)N1CCC[C@H]1C(=O)N1CCC[C@H]1C(=O)N[C@@H](CCC(N)=O)C(=O)N[C@@H](COP(=O)(O)O)C(=O)N1CCC[C@H]1C(=O)O` [Peptide 9, KEAPPAPPQS(p)P] (H-KEAPPAPPQ[pS]P-OH; N-terminus and C-terminus assumed) here?
**A.** not inhibited

**Q.** With `C[C@H](NC(=O)[C@@H]1CCCN1)C(=O)N1CCC[C@H]1C(=O)N1CCC[C@H]1C(=O)N[C@@H](CCC(N)=O)C(=O)N[C@@H](COP(=O)(O)O)C(=O)N1CCC[C@H]1C(=O)O` [Peptide 12, PAPPQS(p)P] (H-PAPPQ[pS]P-OH) as the compound, how does the Inhibitor functionality (GSK-3β) read?
**A.** * (weak inhibition activity (IC50 > 800 μM))

**Q.** Which “Increase in β-catenin levels” value (β-catenin; 1 hour after i.c.v. L803-mts) does the source give for `CCCCCCCCCCCCCC(=O)NCC(=O)N[C@@H](CCCCN)C(=O)N[C@@H](CCC(=O)O)C(=O)N[C@@H](C)C(=O)N1CCC[C@H]1C(=O)N1CCC[C@H]1C(=O)N[C@@H](C)C(=O)N1CCC[C@H]1C(=O)N1CCC[C@H]1C(=O)N[C@@H](CCC(N)=O)C(=O)N[C@@H](COP(=O)(O)O)C(=O)N1CCC[C@H]1C(=O)O` [Peptide L803-mts, N-Myristol-GKEAPPAPPQS(p)P] (Myristoyl-GKEAPPAPPQ[pS]P-OH; C-terminus assumed) here?
**A.** 20%

**Q.** What about the “Increase in β-catenin levels” value (β-catenin; 3 hours after i.c.v. L803-mts) of the same compound?
**A.** 30%

**Q.** And the “Increase in β-catenin levels” value (β-catenin; 12 hours post administration)?
**A.** 50%

**Q.** And the “Concentrations inhibiting endogenous GSK-3” value (glycogen synthase)?
**A.** 10 to 40 µM

**Q.** What about the “Increase of glycogen synthase activity” value (glycogen synthase; 2.5 hours, compared with cells treated with LE803-mts or LS803-mts) of the same compound?
**A.** 2.5 fold

**Q.** And the “Reduction in the blood glucose peak and in glucose levels 1 and 2 hours after glucose” value ([1]; 400 nmol i.p. one hour before glucose 1 gram/kg)?
**A.** 20%

**Q.** What about the “Glucose tolerance (in words)” value ([1]; 400 nmol i.p.) of the same compound?
**A.** better glucose tolerance

**Q.** And the “Effect on insulin-induced glucose uptake (in words)” value (mouse adipocytes; L803-mts 1-10 μM followed by sub-optimal insulin (5 nM))?
**A.** additive effect

**Q.** What about the “Increase of 2-deoxyglucose incorporation” value (mouse adipocytes; mouse adipocytes, no insulin, compared with cells treated with LE803-mts or LS803-mts) of the same compound?
**A.** approximately 2.5 fold

**Q.** What about the “Shortening of immobility time” value ([2]; FST 1 hour after i.c.v. injection) of the same compound?
**A.** 37%±3.7%

**Q.** And the “Shortening of immobility time” value ([2]; FST 3 hours after i.c.v. injection)?
**A.** 44%±5.7%

**Q.** And the “Shortening of immobility time” value ([2]; FST 12 hours after i.c.v. injection)?
**A.** 16%±0.6%

**Q.** For KEEPPAPPQSP [Peptide 10], which “GSK-3 inhibition (in words)” value (GSK-3β) is on record?
**A.** inactive inhibitors

**Q.** For ILSRPPEYR [Peptide 3], which “Phosphorylation by GSK-3 (in words)” value (GSK-3) is on record?
**A.** eliminated the capacity of GSK-3 to phosphorylate these peptides

**Q.** For “N-Myristol-GKEAPPAPPQSP (Myristoyl-GKEAPPAPPQSP) [LS803-mts, control conjugate, phosphorylated serine replaced with serine, reference compound]”, which “GSK-3 inhibition (in words)” value (GSK-3β) is on record?
**A.** do not inhibit

**Q.** For KEEPPAPPQEP [Peptide 11], which “GSK-3 inhibition (in words)” value (GSK-3β) is on record?
**A.** inactive inhibitors
